The source of these data is US8785459B2, “Quinazoline compounds as kinase inhibitors” (Development Center for Biotechnology, priority 2011, dated 2014).

One experiment addresses B-Raf (Homo sapiens (Human), UniProt P15056). Put plainly: Raf kinase assay (B-Raf), [33P] incorporation into MEK1(K97R). Type of experiment: biochemical. The settings on record: for inhibition at 1 µM / B-Raf inhibition at 1.0 μM: 1.0 μM compound; for inhibition at 1 µM: read-out: B-Raf inhibition at 1.0 μM. Put shortly: (§1)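 [33P] transfer to kinase-dead MEK1(K97R) substrate (500 ng) measured after 30 min at 30 °C in Tris pH 7.5 buffer containing 8 μM ATP. Enzyme inputs were 2 ng for C-Raf and 5 ng for B-Raf and B-Raf V600E. Duplicate 3-fold serial dilutions gave the half-maximal inhibitory concentration.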

The next experiment deals with B-Raf (V600E) (Homo sapiens (Human), UniProt P15056, V600E). Description: Raf kinase assay (B-Raf (V600E)), [33P] incorporation into MEK1(K97R). It counts as biochemical. An outline of the steps: as §1
In another experiment the target is C-Raf (Homo sapiens (Human), UniProt P04049). Put plainly: Raf kinase assay (C-Raf), [33P] incorporation into MEK1(K97R). Type of experiment: biochemical. Put shortly: as §1
In the next experiment the test system is A549. Description: Anti-proliferative activity, CellTiter-96 assay, A549. It counts as cell-based. The settings on record: Homo sapiens, A549 cells, 72 hours incubation. How it is done: (§2) Antiproliferative Activity
(§3) The anti-proliferative activities of the compounds with formula (I) and formula (II) with respect to four human cancer cell lines (A549, A375, MDA-MB-231, and COLO205) were measured using the CellTiter™-96 assay kit (Promega) following the manufacturer's instructions. In brief, the cells were maintained in DMEM containing 10% FCS and incubated at 37° C. in 5% CO2 atmosphere. Cells were plated at a density of 2000 cells/well of a 96-well plate for 24 h, then treated with different concentrations of the compounds, and incubated for another 72 hours. At the end of the incubation, CellTiter™-96 Aqueous One Solution Reagent (Promega) was added and incubated for another 4.0 hours. Cell viability was determined by measuring absorbance at 490 nm using EMax® microplate reader (Molecular Devices). Data were processed and analyzed using GraphPad Prism version 4.

In the next experiment the test system is A375. Put plainly: Anti-proliferative activity, CellTiter-96 assay, A375. Conditions: Homo sapiens, A-375, A375 cells, 72 hours incubation. Type of experiment: cell-based. As for the experimental part: as §2, §3
The test system of another experiment is MDA-MB-231. Description: Anti-proliferative activity, CellTiter-96 assay, MDA-MB-231. It counts as cell-based. The settings on record: Homo sapiens, MDA-MB-231 cells, 72 hours incubation. As for the experimental part: as §2, §3
The subject of a further experiment is COLO205. Description: Anti-proliferative activity, CellTiter-96 assay, COLO205. Conditions: Homo sapiens, COLO 205, COLO205 cells, 72 hours incubation. It counts as cell-based. How it is done: as §2, §3

A value given as a limit tells only on which side of the number the result lay.

Chain of B-Raf (V600E) (P15056 whole entry V600E): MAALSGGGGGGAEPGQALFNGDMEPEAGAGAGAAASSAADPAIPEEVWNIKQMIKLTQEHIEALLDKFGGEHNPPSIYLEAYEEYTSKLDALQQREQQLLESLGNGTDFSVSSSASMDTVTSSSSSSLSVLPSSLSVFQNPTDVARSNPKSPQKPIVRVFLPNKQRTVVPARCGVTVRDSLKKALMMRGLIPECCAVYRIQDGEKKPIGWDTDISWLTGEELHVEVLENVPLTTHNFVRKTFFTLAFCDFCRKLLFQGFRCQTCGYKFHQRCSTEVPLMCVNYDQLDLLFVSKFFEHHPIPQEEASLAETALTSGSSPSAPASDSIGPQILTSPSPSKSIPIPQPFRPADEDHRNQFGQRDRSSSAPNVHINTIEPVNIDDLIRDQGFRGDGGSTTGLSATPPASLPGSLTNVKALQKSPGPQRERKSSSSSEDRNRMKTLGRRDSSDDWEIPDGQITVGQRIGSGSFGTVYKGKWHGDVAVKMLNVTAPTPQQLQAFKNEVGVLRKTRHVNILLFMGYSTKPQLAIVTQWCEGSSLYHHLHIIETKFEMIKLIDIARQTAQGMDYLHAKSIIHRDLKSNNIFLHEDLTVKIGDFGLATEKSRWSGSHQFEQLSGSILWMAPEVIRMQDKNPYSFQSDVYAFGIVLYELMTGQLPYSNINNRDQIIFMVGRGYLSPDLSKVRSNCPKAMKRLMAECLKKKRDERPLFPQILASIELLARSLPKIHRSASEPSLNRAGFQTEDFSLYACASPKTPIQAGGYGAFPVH
Chain of C-Raf (P04049 whole entry): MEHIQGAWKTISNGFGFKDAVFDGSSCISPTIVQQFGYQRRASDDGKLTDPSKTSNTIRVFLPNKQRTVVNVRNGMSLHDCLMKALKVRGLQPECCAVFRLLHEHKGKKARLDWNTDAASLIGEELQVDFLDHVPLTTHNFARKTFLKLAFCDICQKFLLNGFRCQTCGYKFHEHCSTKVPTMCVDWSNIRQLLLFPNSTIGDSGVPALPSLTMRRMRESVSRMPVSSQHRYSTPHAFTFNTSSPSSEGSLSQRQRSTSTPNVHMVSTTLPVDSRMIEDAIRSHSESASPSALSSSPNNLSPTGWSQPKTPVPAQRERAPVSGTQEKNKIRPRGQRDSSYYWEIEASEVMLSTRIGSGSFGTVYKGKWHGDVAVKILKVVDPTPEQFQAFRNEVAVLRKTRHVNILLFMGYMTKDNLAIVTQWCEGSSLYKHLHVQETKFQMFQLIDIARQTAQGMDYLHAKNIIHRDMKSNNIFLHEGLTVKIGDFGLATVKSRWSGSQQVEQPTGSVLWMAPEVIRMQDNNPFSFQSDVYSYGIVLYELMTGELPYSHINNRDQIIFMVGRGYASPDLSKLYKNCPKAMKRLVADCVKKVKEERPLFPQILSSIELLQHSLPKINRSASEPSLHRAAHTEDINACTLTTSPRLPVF
Chain of B-Raf (P15056 whole entry): as the sequence (P15056 whole entry V600E) above, with E600V counted along it

Broadly, the IC50 is the point on the concentration scale where inhibition reaches its midpoint. A high value points to lower potency. Turning to `COc1cc(-c2ccc3ncnc(Nc4ccccc4)c3c2)ccc1O` [Compound 1, 2-methoxy-4-(4-(phenylamino)quinazolin-6-yl)phenol], the IC50 against B-Raf came out at 900 nM; at B-Raf (V600E), 760 nM; on C-Raf it was 2150 nM; with A549 it was 1300 ± 300 nM; in the experiment on A375, 2300 ± 100 nM; with MDA-MB-231 it was 1800 ± 200 nM. In the experiment with COLO205, half-maximal inhibition (IC50) was put at 8500 ± 2300 nM.

Broadly, the inhibition is the drop in the measured response relative to a control, in per cent. On to `COc1cc(-c2ccc3ncnc(Nc4ccc(F)c(Cl)c4)c3c2)ccc1O` [Compound 14, 4-(4-(3-chloro-4-fluorophenylamino)quinazolin-6-yl)-2-methoxyphenol], for which the half-maximal inhibitory concentration (IC50) on B-Raf is 1010 nM; against B-Raf (V600E) it was 1090 nM; against C-Raf, 2160 nM; with A549, more than 50000 nM; in the experiment with A375, more than 50000 nM; in the experiment on MDA-MB-231, more than 50000 nM. In the experiment with COLO205, the half-maximal inhibitory concentration (IC50) came out at 31600 ± 2500 nM. Besides, at B-Raf, the inhibition at 1 µM is 52.7%.

In the case of `COc1cc(-c2ccc3ncnc(Nc4ccc(F)cc4)c3c2)ccc1O` [Compound 15, 4-(4-(4-fluorophenylamino)quinazolin-6-yl)-2-methoxyphenol], the IC50 on B-Raf was 1150 nM; against B-Raf (V600E), 1020 nM; against C-Raf it was 1450 nM; with A549, 2500 ± 600 nM; in the experiment on A375 it was 2700 ± 200 nM; with MDA-MB-231, 4100 ± 300 nM. The compound also showed an IC50 in the experiment with COLO205 of 11800 ± 4600 nM. The inhibition at 1 µM on B-Raf worked out at 44.4%.

For the compound `COc1cc(-c2cc3c(Nc4cccc(O)c4)ncnc3cc2OC)ccc1O` [Compound 31, 4-(4-(3-hydroxyphenylamino)-7-methoxyquinazolin-6-yl)-2-methoxyphenol], the 50% inhibitory concentration (IC50) was 87 nM on B-Raf; 94 nM against B-Raf (V600E); 781 nM on C-Raf; more than 50000 nM in the experiment with A549; more than 50000 nM in the experiment with A375; more than 50000 nM in the experiment with MDA-MB-231. The IC50 with COLO205 was more than 50000 nM. Moreover, the inhibition at 1 µM at B-Raf is 93.8%.

As for `COc1cc(-c2cc3c(Nc4cc(O)ccc4Cl)ncnc3cc2OC)ccc1O` [Compound 43, 4-(4-(2-chloro-5-hydroxyphenylamino)-7-methoxyquinazolin-6-yl)-2-methoxyphenol], the IC50 was 40.4 nM at B-Raf; 47.3 nM at B-Raf (V600E); 245 nM against C-Raf; 2200 ± 400 nM with A549; 8700 ± 2700 nM in the experiment on A375; more than 50000 nM in the experiment with MDA-MB-231. Moreover, inhibition in the experiment with COLO205 was half-maximal at 24700 ± 2400 nM (IC50). Moreover, the inhibition at 1 µM at B-Raf amounted to 94.3%.

`COc1cc2ncnc(Nc3cccc(O)c3)c2cc1-c1ccc(O)cc1` [Compound 49, 3-(6-(4-hydroxyphenyl)-7-methoxyquinazolin-4-ylamino)phenol]: the IC50 against B-Raf is 55.3 nM; against B-Raf (V600E), 71.6 nM; on C-Raf, 790 nM; in the experiment on A549, more than 50000 nM; in the experiment on A375, more than 50000 nM; in the experiment with MDA-MB-231, more than 50000 nM. This compound showed an IC50 in the experiment with COLO205 of more than 50000 nM. The inhibition at 1 µM on B-Raf came to 90.3%.

Regarding `COc1cc(-c2ccc3ncnc(Nc4cccc5[nH]ncc45)c3c2)ccc1O` [Compound 51, 4-(4-(1H-indazol-4-ylamino)quinazolin-6-yl)-2-methoxyphenol], the IC50 at B-Raf amounted to 121 nM; at B-Raf (V600E), 157 nM; against C-Raf it was 404 nM; in the experiment on A549, 1600 ± 300 nM; in the experiment on A375 it was 1400 ± 100 nM; in the experiment with MDA-MB-231 it was 1600 ± 400 nM. Further, 7700 ± 300 nM corresponded to half-maximal inhibition in the experiment on COLO205 (IC50). The inhibition at 1 µM at B-Raf amounted to 86%.

Turning to `COc1cc(-c2ccc3ncnc(Nc4cccc5[nH]c(=O)[nH]c45)c3c2)ccc1O` [Compound 127, 4-(6-(4-hydroxy-3-methoxyphenyl)quinazolin-4-ylamino)-1H-benzo[d]imidazol-2(3H)-one], the results for the IC50 against B-Raf, at B-Raf (V600E) and at C-Raf were 888 nM, 1090 nM and 8390 nM, respectively. In addition, the inhibition at 1 µM at B-Raf was 53.5%.

Turning to `COc1cc(-c2ccc3nccc(Nc4cc(NS(C)(=O)=O)ccc4F)c3c2)ccc1O` [Compound 128, N-(4-fluoro-3-(6-(4-hydroxy-3-methoxyphenyl)quinolin-4-ylamino)phenyl)methanesulfonamide], the IC50 came to 4130 nM on B-Raf, 4280 nM at B-Raf (V600E) and 12800 nM against C-Raf. Also, the inhibition at 1 µM at B-Raf stood at 18.5%.

On to `COc1cc(-c2ccc3ncnc(Nc4cc(NS(C)(=O)=O)ccc4F)c3c2)ccc1O` [Compound 129, N-(4-fluoro-3-(6-(4-hydroxy-3-methoxyphenyl)quinazolin-4-ylamino)phenyl)methanesulfonamide], for which the concentration for half-maximal inhibition (IC50) against B-Raf came to 240 nM; against B-Raf (V600E), 270 nM; against C-Raf, 1060 nM. The inhibition at 1 µM on B-Raf is 77.5%.

On to `Oc1ccc(-c2ccc3ncnc(Nc4cccc5[nH]ncc45)c3c2)cc1` [Compound 131, 4-(4-(1H-indazol-4-ylamino)quinazolin-6-yl)phenol], for which the IC50 on B-Raf is 451 nM; on B-Raf (V600E), 547 nM; at C-Raf, 4210 nM. Moreover, the inhibition at 1 µM on B-Raf was 80.1%.

As for `COc1cc(-c2ccc3ncnc(Nc4c(F)cccc4F)c3c2)ccc1O` [Compound 134, 4-(4-(2,6-difluorophenylamino)quinazolin-6-yl)-2-methoxyphenol], the IC50 against B-Raf amounted to 760 nM; at B-Raf (V600E), 706 nM; on C-Raf, 4420 nM. Besides, the inhibition at 1 µM at B-Raf worked out at 57.7%.

On to `COc1cc(-c2ccc3ncnc(Nc4c(F)ccc5[nH]ncc45)c3c2)ccc1O` [Compound 136, 4-(4-(5-fluoro-1H-indazol-4-ylamino)quinazolin-6-yl)-2-methoxyphenol], for which the IC50 at B-Raf stood at 350 nM; on B-Raf (V600E), 268 nM; against C-Raf, 1130 nM. Further, the “B-Raf inhibition at 1.0 μM” value at B-Raf is reported as 84.9%.

As for `Oc1cccc(-c2ccc3ncnc(Nc4cccc5[nH]ncc45)c3c2)c1` [Compound 143, 3-(4-(1H-indazol-4-ylamino)quinazolin-6-yl)phenol], the figures for the concentration for half-maximal inhibition (IC50) against B-Raf, on B-Raf (V600E) and at C-Raf were 227 nM, 357 nM and 1960 nM, respectively. Besides, the inhibition at 1 µM at B-Raf was determined as 75.4%.

On to `COc1cccc(-c2ccc3ncnc(Nc4cccc5[nH]ncc45)c3c2)c1` [Compound 144, N-(1H-indazol-4-yl)-6-(3-methoxyphenyl)quinazolin-4-amine], for which the IC50 was 309 nM against B-Raf, 472 nM against B-Raf (V600E) and 3900 nM against C-Raf. In addition, the inhibition at 1 µM at B-Raf was 62.6%.

As to `COc1cccc(-c2ccc3nccc(Nc4cccc5[nH]ncc45)c3c2)c1` [Compound 146, N-(1H-indazol-4-yl)-6-(3-methoxyphenyl)quinolin-4-amine], the figures for the half-inhibitory concentration (IC50) on B-Raf, at B-Raf (V600E) and against C-Raf were 614 nM, 426 nM and 3700 nM, respectively. In addition, the “B-Raf inhibition at 1.0 μM” value on B-Raf stood at 64.3%.

In the case of `COc1ccc(-c2ccc3ncnc(Nc4cccc5[nH]ncc45)c3c2)cc1` [Compound 147, N-(1H-indazol-4-yl)-6-(4-methoxyphenyl)quinazolin-4-amine], the IC50 against B-Raf was 680 nM; on B-Raf (V600E), 848 nM; on C-Raf it was 2950 nM. On B-Raf, the inhibition at 1 µM was 50.7%.

For the compound `Oc1cccc(-c2ccc3nccc(Nc4cccc5[nH]ncc45)c3c2)c1` [Compound 148, 3-(4-(1H-indazol-4-ylamino)quinolin-6-yl)phenol], the values for the IC50 on B-Raf, against B-Raf (V600E) and against C-Raf were 230 nM, 359 nM and 584 nM, respectively. Further, the inhibition at 1 µM on B-Raf came to 68.9%.

Regarding `COc1ccc(-c2ccc3ncnc(Oc4cccc(O)c4)c3c2)cc1` [Compound 152, 3-(6-(4-methoxyphenyl)quinazolin-4-yloxy)phenol], the 50% inhibitory concentration (IC50) is 131 nM against B-Raf; 198 nM against B-Raf (V600E); 2330 nM on C-Raf; more than 50000 nM with A549; more than 50000 nM with A375; more than 50000 nM in the experiment on MDA-MB-231. The inhibition at 1 µM at B-Raf stood at 86.4%.

For the compound `c1cc(Nc2ncnc3ccc(-c4ccc5[nH]ncc5c4)cc23)c2cn[nH]c2c1` [Compound 153, N-(1H-indazol-4-yl)-6-(1H-indazol-5-yl)quinazolin-4-amine], the IC50 on B-Raf was determined as 188 nM; at B-Raf (V600E), 236 nM; at C-Raf, 723 nM; in the experiment with A549 it was 7700 ± 600 nM; in the experiment with A375, 6400 ± 900 nM; in the experiment on MDA-MB-231, 7800 ± 300 nM. The inhibition at 1 µM on B-Raf is 84.4%.

As to `Oc1c(F)ccc(Nc2ncnc3ccc(-c4ccc(Cl)cc4)cc23)c1F` [Compound 164, 3-(6-(4-chlorophenyl)quinazolin-4-ylamino)-2,6-difluorophenol], the IC50 against B-Raf came out at 151 nM; against B-Raf (V600E), 216 nM; against C-Raf, 3510 nM. For the same compound, on B-Raf, the inhibition at 1 µM was found to be 83%.
